Legend:
SVCV (鲤春病毒血症病毒) [1] = test: Survival of SVCV-infected zebrafish fed deoxycholic acid; assay type: in vivo; conditions: 0.2 mg/fish per feeding, 7 days before injection of 10^4 PFU SVCV, 14 d observation, 16 °C; control 23.33%
SVCV (鲤春病毒血症病毒) [2] = test: Histopathology (H&E) of organs of SVCV-infected zebrafish; assay type: in vivo; conditions: zebrafish liver, intestine, kidney, 5 d after SVCV infection, versus SVCV infection group
SVCV (鲤春病毒血症病毒) [3] = test: Inhibition of SVCV virus particle formation (plaque assay on EPC cell supernatant); assay type: cell-based; conditions: 50 μM, EPC cells, 0.1 MOI SVCV, 28 °C, 24 h; control 10^6.11 PFU/mL
IHNV (传染性造血器官坏死病病毒) [4] = test: Viral load in organs of IHNV-infected rainbow trout (IHNV-G quantification); assay type: in vivo; conditions: 5 d after IHNV infection, DCA 0.2 mg/fish fed
IHNV (传染性造血器官坏死病病毒) [5] = test: Inhibition of IHNV in EPC cells (RT-qPCR of IHNV-G gene); assay type: cell-based; conditions: 50 μM, 0.1 MOI IHNV, 16 °C, 24 h, P<0.0001 vs control
IHNV (传染性造血器官坏死病病毒) [6] = test: Survival of IHNV-infected rainbow trout fed deoxycholic acid; assay type: in vivo; conditions: 0.2 mg/fish per feeding, 7 days before injection of 10^4 PFU IHNV, 14 d observation, 16 °C; control 30%
SVCV (鲤春病毒血症病毒) [7] = test: Inhibition of SVCV-G gene expression in EPC cells (RT-qPCR); assay type: cell-based; conditions: 12 h pretreatment, 0.1 MOI SVCV, 28 °C, 24 h
SVCV (鲤春病毒血症病毒) [8] = test: Viral load in organs of SVCV-infected zebrafish (absolute quantification of SVCV-G); assay type: in vivo; conditions: 5 d after SVCV infection, DCA 0.2 mg/fish fed
[9] = test system: SVCV-G protein (SVCV-G蛋白); test: Inhibition of SVCV-G protein expression in EPC cells (western blot); assay type: cell-based; conditions: 1-50 μM, increasing concentration, 0.1 MOI SVCV, 28 °C, 24 h
rainbow trout (虹鳟) = test: Toxicity to rainbow trout by organ histology (H&E), uninfected; assay type: in vivo; conditions: DCA-fed (0.2 mg/fish), liver, intestine, kidney histology
zebrafish (斑马鱼) = test: Toxicity to zebrafish by organ histology (H&E), uninfected; assay type: in vivo; conditions: DCA-fed (0.2 mg/fish), liver, intestine, kidney histology
IHNV (传染性造血器官坏死病病毒) [10] = test: Histopathology (H&E) of organs of IHNV-infected rainbow trout; assay type: in vivo; conditions: rainbow trout liver, intestine, kidney, 5 d after IHNV infection, versus IHNV infection group

## C[C@H](CCC(=O)O)[C@H]1CC[C@H]2[C@@H]3CC[C@@H]4C[C@H](O)CC[C@]4(C)[C@H]3C[C@H](O)[C@]12C [去氧胆酸]
SVCV (鲤春病毒血症病毒) [1]
  survival rate of SVCV-infected zebrafish: 66.67%
SVCV (鲤春病毒血症病毒) [2]
  pathological damage caused by virus infection in organs: 明显减轻
SVCV (鲤春病毒血症病毒) [3]
  SVCV detection in cell supernatant: 无法被检测到
IHNV (传染性造血器官坏死病病毒) [4]; intestine
  viral load in intestine: 显著降低
IHNV (传染性造血器官坏死病病毒) [4]; kidney
  viral load in kidney: 显著降低
IHNV (传染性造血器官坏死病病毒) [5]
  IHNV viral load: 显著降低
IHNV (传染性造血器官坏死病病毒) [6]
  survival rate of IHNV-infected rainbow trout: 60%
SVCV (鲤春病毒血症病毒) [7]; 1 μM, P<0.01, read-out: decrease of SVCV-G gene expression relative to control
  inhibition at 1 µM: 30.2%
SVCV (鲤春病毒血症病毒) [7]; 5 μM, P<0.001, read-out: decrease of SVCV-G gene expression relative to control
  inhibition at 5 µM: 49.2%
SVCV (鲤春病毒血症病毒) [7]; 10 μM, P<0.001, read-out: decrease of SVCV-G gene expression relative to control
  inhibition at 10 µM: 50.7%
SVCV (鲤春病毒血症病毒) [7]; 20 μM, P<0.0001, read-out: decrease of SVCV-G gene expression relative to control
  inhibition at 20 µM: 68%
SVCV (鲤春病毒血症病毒) [7]; 50 μM, P<0.0001, read-out: decrease of SVCV-G gene expression relative to control
  inhibition at 50 µM: 92%
SVCV (鲤春病毒血症病毒) [8]; intestine
  viral load in intestine: 显著降低
SVCV (鲤春病毒血症病毒) [8]; kidney
  viral load in kidney: 显著降低
SVCV (鲤春病毒血症病毒) [8]; liver
  viral load in liver: 显著降低
[9]
  SVCV G protein expression compared with control: 依次降低
Rainbow trout (虹鳟)
  toxicity to rainbow trout: 没有毒性
Zebrafish (斑马鱼)
  toxicity to zebrafish: 没有毒性
IHNV (传染性造血器官坏死病病毒) [10]
  pathological damage caused by virus infection in organs: 明显减轻

From CN116919972A, “去氧胆酸在制备抗水生病毒感染的药物或添加剂中的应用” (priority 2023, dated 2023)
